Biological target: DP IV (Sus scrofa, UniProt P22411)
Assay: Ki-determination, photometric DP IV assay with substrate GP-4-Nitroanilide
Type: biochemical
Conditions: competitor of GP-4-Nitroanilide, 3.5 nM DP IV, 30° C., pH 7.6 40 mM HEPES
Procedure: In order to measure the inhibition constant Ki a photometric assay was used The test compounds were measured as competitors of the standard substrate GP-4-Nitroanilide. Three different substrate concentrations (0.4 mM to 0.05 mM) were combined with 8 different competitor concentrations (0.5 mM to 2 μM). The reaction was started by addition of 3.5 nM DP IV. Experiments were carried out under standard conditions: 30° C. in pH 7.6 40 mM HEPES (Sigma-Aldrich) buffer. Nitroaniline production was monitored using a HTS 7000+microplate reader (PerkinElmer, Überlingen, Germany). The Ki-values were calculated via non-linear regression using the enzyme kinetic program Grafit 4.016 (Erithacus Ltd, UK).

Sequence of DP IV (P22411 whole entry): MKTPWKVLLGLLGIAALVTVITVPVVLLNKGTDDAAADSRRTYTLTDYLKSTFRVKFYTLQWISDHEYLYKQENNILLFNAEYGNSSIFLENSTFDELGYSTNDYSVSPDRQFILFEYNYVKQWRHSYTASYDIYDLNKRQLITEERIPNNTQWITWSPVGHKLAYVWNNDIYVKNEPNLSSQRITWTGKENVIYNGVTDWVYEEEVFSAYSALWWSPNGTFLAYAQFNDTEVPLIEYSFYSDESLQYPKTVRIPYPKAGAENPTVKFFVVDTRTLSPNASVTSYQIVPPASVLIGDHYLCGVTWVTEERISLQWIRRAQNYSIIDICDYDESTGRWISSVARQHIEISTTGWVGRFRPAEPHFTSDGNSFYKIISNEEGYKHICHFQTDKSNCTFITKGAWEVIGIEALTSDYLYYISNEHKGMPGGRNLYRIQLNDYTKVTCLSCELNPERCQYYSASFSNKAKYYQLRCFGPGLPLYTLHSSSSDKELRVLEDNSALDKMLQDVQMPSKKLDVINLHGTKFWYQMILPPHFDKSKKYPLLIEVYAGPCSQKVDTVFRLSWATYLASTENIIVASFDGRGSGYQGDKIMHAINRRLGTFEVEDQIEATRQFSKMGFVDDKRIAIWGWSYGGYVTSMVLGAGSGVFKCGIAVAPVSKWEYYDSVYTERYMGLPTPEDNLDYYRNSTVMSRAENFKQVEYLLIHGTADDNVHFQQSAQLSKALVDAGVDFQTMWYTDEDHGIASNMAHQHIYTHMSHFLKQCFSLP

- Ki: 6.29 µM
Compound: CCC(C)C(N)C(=O)C1CCCC1 (stereo not shown) [Example 1, 1-cyclopentyl-3-methyl-1-oxo-2-pentanaminium chloride]

Reference: patent US20050014946A1, “Substituted amino ketone compounds” (priority 2001, published 2005)
